The text below walks through data of patent US5461046A, “1-,2-,3-,4-,5-,6-,7-,8-, and/or 9-substituted dibenzoxazepine compounds, pharmaceutical compositions and methods for treating pain” (G. D. Searle & Co., priority 1993, dated 1995).

Assay [1] relates to micturition reflex in rats. Particulars: urethane-anesthetized rats; cited from earlier work.
For assay [2], the system named is stimulant actions of prostaglandins on isolated smooth muscle preparations. Particulars: cited from earlier work.
Assay [3] addresses T1, prostaglandin E2-induced contractions of segments of guinea pig ileum (Cavia porcellus, UniProt A0A286XHJ6).
T1 construct: The ilea were then quickly removed from the guinea pigs; from tissue; host or cells: ileum segments of male albino guinea pigs
T1 sequence (A0A286XHJ6 1-405): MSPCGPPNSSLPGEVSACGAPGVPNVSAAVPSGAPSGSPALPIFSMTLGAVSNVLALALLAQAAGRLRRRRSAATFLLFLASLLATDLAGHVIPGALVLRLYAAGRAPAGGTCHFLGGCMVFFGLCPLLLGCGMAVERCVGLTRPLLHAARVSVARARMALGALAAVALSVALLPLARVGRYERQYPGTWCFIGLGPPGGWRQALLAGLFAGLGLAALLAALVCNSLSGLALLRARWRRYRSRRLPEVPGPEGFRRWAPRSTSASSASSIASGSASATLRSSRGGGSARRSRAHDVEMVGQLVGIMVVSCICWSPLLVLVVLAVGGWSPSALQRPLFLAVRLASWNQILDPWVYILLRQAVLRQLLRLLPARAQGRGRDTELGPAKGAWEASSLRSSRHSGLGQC
As to the kind of experiment: Prostaglandin (PGE) Antagonism Assay in guinea pig ileum. To be noted: initial concentration 3 micromolar; estimated pA2 (slope -1.0 assumed) or Schild plot pA2. How it is done: In order to determine the effectiveness of several of the compounds of the present invention ("test compounds") as prostaglandin E2 antagonists,a prostaglandin antagonism assay was conducted, as described below, to determine the ability of these compounds to inhibit prostaglandin E2 -induced contractions of segments of guinea pig ileum.
Male albino guinea pigs weighing 200 to 500 grams were sacrificed by cervical dislocation. The ilea were then quickly removed from the guinea pigs and placed in a modified Tyrode solution, a solution which is known to those skilled in the art, containing one-half of the usual amount of magnesium ions.
Segments of ileum about 2 cm long were then cut and mounted in a 10-mL tissue bath containing the modified Tyrode solution. The solution was maintained at 37° C. and aerated with a gaseous mixture of 95% oxygen and 5% carbon dioxide. Data for a control prostaglandin E2 dose response curve plotting concentration of prostaglandin E2 versus the intensity of contractions, detected isotonically, was then obtained by experimentally adjusting the dose of the prostaglandin E2 being injected into the tissue bath, in a manner known by those of skill in the art.
Solutions or suspensions containing an initial concentration (3 micromolar) of a test compound in modified Tyrode solution ("test solutions/suspensions") were then separately substituted for the control bath solution. Each test solution/suspension was then kept in constant contact with the ileum tissue, except for brief periods to drain the bath in preparation for rinsing with fresh test solution/suspension. A second prostaglandin E2 dose response curve was then generated for prostaglandin E2 in the presence of a test compound.
A dose ratio of EC50 doses was then calculated from the results of each test in a manner known by those of skill in the art. A test compound was determined to be "active" if the initial concentration used yielded at least a two-fold shift (dose ratio greater than or equal to 2) in the dose response curve for prostaglandin E2.
The compounds of the present invention which were tested in this assay, and for which results are presented in Table 2, correspond to the particular examples specified in Table 2.

In assay [4] the test system is phenylbenzoquinone (PBQ)-induced writhing in mice. As to the kind of experiment: Writhing Assay (phenylbenzoquinone-induced writhing, analgesia). The assay is classed as in vivo, Charles River male albino mice. To be noted: for responders at 30 mg/kg: Mus musculus, 25 min, 25 min before PBQ i.p., number of mice out of ten with analgesia. From the text: The Writhing Assay is one of the most widely-used experimental procedures for measuring the analgesic activity of different narcotic and nonnarcotic analgesic agents, and involves the continuous, chemically-induced pain of visceral origin to an animal, such as a mouse or rat. [Gyires et al., Arch. int. Pharmacodyn, 267, 131-140 (1984); C. Vander Wende et al., Fed. Proc., 15, 494 (1956); Koster et al., Fed. Proc., 18, 412 (1959); and Witken et al., J. Pharmacol. exp. Ther., 133, 400-408 (1961).] Chemicals which may be used to induce this pain include phenylbenzoquinone (PBQ) and acetic acid. As a result of the chemical irritation to the animal, a characteristic stretching and writhing of the animal (dorsiflexion of the animal's back, extension of its hindlimbs and the strong contraction of its abdominal musculature) will generally occur. […] Drugs which reduce the number of writhes of the animal appear to restore the normal nociceptive threshold of the animal.
Charles River male albino mice, weighing 20 to 30 grams were used in this assay.
Twenty-five minutes after subcutaneous or intragastric administration to ten mice of 30 mg per kilogram of body weight of a compound of the present invention ("test compound"), […] per 10 g of body weight of a 0.025% w/v solution of PBQ was injected intraperitoneally into each mouse. Ten mice which were given saline in place of a test compound of the invention were used as a control group.
Five minutes later, each mouse was individually placed into a glass beaker for observation, and the number of writhes occurring during the following ten-minute period was counted.
A test compound was considered to have produced analgesia in a mouse if, in accordance with the conditions set forth above, and under the test criteria employed for this assay, after the administration of 30 mg per kilogram of body weight of a compound of the present invention to the mouse, the number of writhes elicited by a mouse injected with PBQ was equal to, or less than, one-half the median number of writhes recorded for the saline-treated control group of mice that day, as described by Taber in "Predictive Value of Analgesic Assays in Mice and Rats," Advances in Biochemical Psychopharmacology, 8, 191 (1974).
The results for the particular compounds of the present invention analyzed in this assay, and discussed in the examples identified below which correspond thereto, are presented in Table 2 hereinbelow under the heading "WRITHING ASSAY." The fractions indicate the number of mice out of ten in which a test compound produced analgesia.
For orientation: An intraperitoneal irritant provokes the stretching counted in writhing tests.

The mark [5] stands for this setting: ip, 30 mg per kg i.g., read-out: WRITHING ASSAY Number Out of Ten I.G. (converted).
Setting [6] is: sc, 30 mg per kg s.c., read-out: WRITHING ASSAY Number Out of Ten S.C.

SMILES strings stand for the structures. Where two headings read alike, the source gives them in different places.

On to `CC(=O)NNC(=O)N1Cc2ccccc2Oc2ccc(Cl)cc21` [SC-19220], for which, in assay [1], the bladder capacity entry was “increased” and the “voiding efficiency of micturition” value is reported as “reduced”. Also, in assay [2], the “inhibition of stimulant actions of prostaglandins” value was “inhibit the stimulant actions of prostaglandins on isolated smooth muscle preparations”.
`O=C(Cc1ccccc1)NNC(=O)N1Cc2ccccc2Oc2ccc(Cl)cc21` [SC-18637]: the “inhibition of stimulant actions of prostaglandins” value in assay [2] is reported as “inhibit the stimulant actions of prostaglandins on isolated smooth muscle preparations”.
A word on the Kb: it is the equilibrium dissociation constant of an antagonist, usually derived from a functional assay. For the compound `CCS(=O)(=O)CCC(=O)NNC(=O)N1Cc2ccccc2Oc2cc(C(=O)O)ccc21` [Example 6, Dibenz[b,f][1,4]oxazepine-7,10(11H)-dicarboxylic acid, 10-[2-[3-(ethylsulfonyl)-1-oxopropyl]hydrazide]], the Kb in assay [3] was 2.63 µM. The values for the responders at 30 mg/kg in assay [4] (setting [5]) and in assay [4] (setting [6]) were 40% and 20%, respectively.
For `CCN(CC)c1ccc2c(c1)N(C(=O)NNC(=O)CCS(=O)(=O)CC)Cc1ccccc1O2` [Example 15, 8-(diethylamino)dibenz[b,f][1,4]oxazepine-10(11H)-carboxylic acid, 2-[3-(ethylsulfonyl)-1-oxopropyl]hydrazide], the Kb in assay [3] was 0.708 µM. The values for the responders at 30 mg/kg in assay [4] (setting [5]) and in assay [4] (setting [6]) were 30% and 10%, respectively.
The like results for `CCS(=O)(=O)CCC(=O)NNC(=O)N1Cc2ccccc2Oc2c(Cl)cccc21` [Example 12, 6-chlorodibenz[b,f][1,4]oxazepine-10(11H)-carboxylic acid, 2-[3-(ethylsulfonyl)-1-oxopropyl]hydrazide] were, in that order, 1.15 µM, 30% and 40%.
Consider `CCS(=O)(=O)CCC(=O)NNC(=O)N1Cc2ccccc2Oc2cc(C(=O)OC)ccc21` [Example 2, Dibenz[b,f][1,4]oxazepine-7,10(11H) dicarboxylic acid, 7-methyl ester, 10-[2-[3-(ethylsulfonyl)-1-oxopropyl]hydrazide]], for which, in assay [3], the Kb was 2 µM. Besides, the responders at 30 mg/kg in assay [4] (setting [5]) was 33.3%; in assay [4] (setting [6]), 30%.
The like results for `CCS(=O)(=O)CCC(=O)NNC(=O)N1Cc2ccccc2Oc2ccc(O)cc21` [Example 19, 8-hydroxydibenz[b,f][1,4]oxazepine-10(11H)-carboxylic acid, 2-[3-(ethylsulfonyl)-1-oxopropyl]hydrazide] were, in that order, 2.57 µM, 40% and 30%.
On to `CCS(=O)(=O)CCC(=O)NNC(=O)N1Cc2ccccc2Oc2cc(C(=O)OC(C)(C)C)ccc21` [Example 5, Dibenz[b,f][1,4]oxazepine-7,10(11H)-dicarboxylic acid, 7-(1,1-dimethylethyl) ester, 10-[2-[3-(ethylsulfonyl)-1-oxopropyl]hydrazide]], for which the Kb in assay [3] was 1.17 µM. In addition, the responders at 30 mg/kg in assay [4] (setting [5]) was 20%; in assay [4] (setting [6]), 30%.
`CCS(=O)(=O)CCC(=O)NNC(=O)N1Cc2ccccc2Oc2ccc(C(F)(F)F)cc21` [Example 20, 8-(trifluoromethyl)dibenz[b,f][1,4]oxazepine-10(11H)-carboxylic acid, 2-[3-(ethylsulfonyl)-1-oxopropyl]hydrazide]: the Kb in assay [3] is 1.26 µM. In addition, the “potency in the Writhing Assay (in words)” value in assay [4] (30 mg per kg s.c. or i.g.) is listed as “most potent compound of the invention tested in this assay”. In addition, the responders at 30 mg/kg in assay [4] (setting [5]) and in assay [4] (setting [6]) was 60% each time.
